As a reminder, the IC50 is the point on the concentration scale where inhibition reaches its midpoint. As a reminder, the EC50 is the midpoint of the concentration-response curve.

Consider ten compounds from patent publication US8987239B2, “19-nor-steroid derivatives with a 15α,16α-methylene group and a saturated 17,17-spirolactone ring, use thereof, and medicaments containing said derivatives” (Bayer Intellectual Property GmbH, priority 2007, dated 2015).

One test addresses androgen receptor (Homo sapiens (Human), UniProt P10275). The test is described as follows: Androgen receptor binding test (displacement of 3H-testosterone). The following applies: cytosol from AR-expressing insect cells (Hi5); for Receptor binding Androgen receptor Competition factor: reference 3H-testosterone; for IC50: read-out: Receptor binding Androgen receptor IC50, 3H-testosterone. Background: In a radioligand displacement assay an active substance lowers the binding of a labelled ligand.

The target in test [1] is mineralocorticoid receptor (Homo sapiens (Human), UniProt P08235). The test is described as follows: Mineralocorticoid receptor binding test (displacement of 3H-aldosterone). The following applies: cytosol from MR-expressing insect cells (Hi5), reference 3H-aldosterone. The text has this: 2. Mineralocorticoid Receptor Binding Test:
Test [2] has as its target T1, progesterone receptor (Homo sapiens (Human), UniProt P06401). The test is described as follows: Progesterone receptor binding test (displacement of 3H-progesterone). The following applies: for Receptor binding Progesterone receptor Competition factor: CF relative to progesterone (=1), CF <1 means higher affinity; for CF PR/CF MR: ratio of competition factors, progesterone receptor to mineralocorticoid receptor; for IC50: read-out: Receptor binding Progesterone receptor IC50, cytosol from PR-expressing insect cells (Hi5), 3H-progesterone.
Target sequence in this assay (P06401 whole entry, species assumed): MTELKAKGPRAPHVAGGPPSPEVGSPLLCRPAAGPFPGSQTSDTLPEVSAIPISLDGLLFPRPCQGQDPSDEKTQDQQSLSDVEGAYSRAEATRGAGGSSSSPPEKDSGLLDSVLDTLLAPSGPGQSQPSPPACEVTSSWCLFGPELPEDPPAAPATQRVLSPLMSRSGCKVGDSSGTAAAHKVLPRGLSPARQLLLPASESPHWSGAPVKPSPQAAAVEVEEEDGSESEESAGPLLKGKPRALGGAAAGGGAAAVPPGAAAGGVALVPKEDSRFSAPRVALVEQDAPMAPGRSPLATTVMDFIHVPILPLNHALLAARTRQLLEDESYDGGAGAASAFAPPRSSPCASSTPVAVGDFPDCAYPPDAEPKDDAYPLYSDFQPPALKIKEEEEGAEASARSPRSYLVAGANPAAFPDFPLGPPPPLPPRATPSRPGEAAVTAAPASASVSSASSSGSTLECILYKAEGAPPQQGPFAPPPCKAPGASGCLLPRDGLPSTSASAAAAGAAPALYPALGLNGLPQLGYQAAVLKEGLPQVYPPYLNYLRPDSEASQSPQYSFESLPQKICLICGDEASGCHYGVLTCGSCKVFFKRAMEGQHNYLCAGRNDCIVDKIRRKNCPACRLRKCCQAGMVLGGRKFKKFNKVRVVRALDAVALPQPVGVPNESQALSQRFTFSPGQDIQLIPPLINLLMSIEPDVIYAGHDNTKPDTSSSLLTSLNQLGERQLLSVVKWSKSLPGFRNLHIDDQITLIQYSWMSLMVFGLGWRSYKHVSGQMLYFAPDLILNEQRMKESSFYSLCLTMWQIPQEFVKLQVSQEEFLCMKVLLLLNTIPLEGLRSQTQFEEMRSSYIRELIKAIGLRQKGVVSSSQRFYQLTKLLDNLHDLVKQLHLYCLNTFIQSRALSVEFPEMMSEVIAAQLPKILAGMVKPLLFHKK
Experimental: Progesterone Receptor Binding Test:
Using cytosol from progesterone receptor-expressing insect cells (Hi5), competitive binding to the progesterone receptor was determined from the ability to displace ^3H-progesterone as reference substance from the receptor.

Test [3] addresses T1, progesterone receptor. Put plainly: Progestational action by transactivation test (CHO K1 reporter cells, luciferase). The test is classed as cell-based. The following applies: for Emax: read-out: In vitro Transactivation Progesterone receptor Agonisten Efficacy. The method, then: 4. Determination of Progestational Action by Means of Transactivation Tests:
The test compounds were added eight hours later, and the cells were incubated with the compounds for 16 hours. The tests were carried out in triplicate. At the end of incubation the medium containing the effector was removed and replaced with lysis buffer. After luciferase assay substrate (Promega, #E1501) had been added, the 96-well plates were then put in a microplate luminometer (Pherastar, BMG labtech), and the luminescence was measured. The IC50 values were evaluated using software for calculating dose-effect relations.
Target sequence in this assay (P06401 679-913, species assumed): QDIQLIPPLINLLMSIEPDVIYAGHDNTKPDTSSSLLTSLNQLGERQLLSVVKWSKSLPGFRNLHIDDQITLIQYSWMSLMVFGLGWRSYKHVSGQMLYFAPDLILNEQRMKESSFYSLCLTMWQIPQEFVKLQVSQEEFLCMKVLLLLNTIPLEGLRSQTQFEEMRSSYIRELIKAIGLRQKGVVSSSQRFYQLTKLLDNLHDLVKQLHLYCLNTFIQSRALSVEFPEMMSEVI

The mark [4] stands for this setting: CHO K1 PR-LBD/Gal4 luciferase reporter cells, 16 hours incubation, read-out: In vitro Transactivation Progesterone receptor Agonisten EC50.
[5] abbreviates: CHO K1 PR-LBD/Gal4 luciferase reporter cells, 16 hours incubation.

Like-named read-outs stand apart in the source and are kept apart here.

Chain of androgen receptor (P10275 whole entry, species assumed): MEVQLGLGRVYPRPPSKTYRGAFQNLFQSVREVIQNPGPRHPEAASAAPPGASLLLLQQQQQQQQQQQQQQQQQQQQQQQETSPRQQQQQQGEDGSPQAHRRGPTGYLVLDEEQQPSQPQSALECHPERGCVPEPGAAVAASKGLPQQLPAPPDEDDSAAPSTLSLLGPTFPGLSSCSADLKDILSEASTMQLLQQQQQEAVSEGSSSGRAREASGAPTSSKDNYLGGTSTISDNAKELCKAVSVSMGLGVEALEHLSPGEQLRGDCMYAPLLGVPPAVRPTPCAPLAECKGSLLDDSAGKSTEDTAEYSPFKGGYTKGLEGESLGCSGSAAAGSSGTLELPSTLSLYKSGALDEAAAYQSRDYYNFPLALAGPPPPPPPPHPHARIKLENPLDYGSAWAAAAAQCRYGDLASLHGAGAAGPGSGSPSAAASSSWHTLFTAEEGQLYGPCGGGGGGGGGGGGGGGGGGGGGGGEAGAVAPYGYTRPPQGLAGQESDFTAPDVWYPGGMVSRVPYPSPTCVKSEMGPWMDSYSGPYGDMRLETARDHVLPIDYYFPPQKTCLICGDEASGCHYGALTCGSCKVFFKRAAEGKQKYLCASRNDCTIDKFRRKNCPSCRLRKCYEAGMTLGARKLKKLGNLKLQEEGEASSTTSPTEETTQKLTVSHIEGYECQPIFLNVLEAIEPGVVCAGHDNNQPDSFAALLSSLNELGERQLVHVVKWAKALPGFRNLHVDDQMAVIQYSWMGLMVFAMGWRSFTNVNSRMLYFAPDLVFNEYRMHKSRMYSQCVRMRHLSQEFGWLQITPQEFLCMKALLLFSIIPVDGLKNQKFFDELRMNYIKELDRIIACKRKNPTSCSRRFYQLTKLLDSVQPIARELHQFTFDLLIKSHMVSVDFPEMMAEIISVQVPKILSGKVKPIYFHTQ
Chain of mineralocorticoid receptor (P08235 whole entry, species assumed): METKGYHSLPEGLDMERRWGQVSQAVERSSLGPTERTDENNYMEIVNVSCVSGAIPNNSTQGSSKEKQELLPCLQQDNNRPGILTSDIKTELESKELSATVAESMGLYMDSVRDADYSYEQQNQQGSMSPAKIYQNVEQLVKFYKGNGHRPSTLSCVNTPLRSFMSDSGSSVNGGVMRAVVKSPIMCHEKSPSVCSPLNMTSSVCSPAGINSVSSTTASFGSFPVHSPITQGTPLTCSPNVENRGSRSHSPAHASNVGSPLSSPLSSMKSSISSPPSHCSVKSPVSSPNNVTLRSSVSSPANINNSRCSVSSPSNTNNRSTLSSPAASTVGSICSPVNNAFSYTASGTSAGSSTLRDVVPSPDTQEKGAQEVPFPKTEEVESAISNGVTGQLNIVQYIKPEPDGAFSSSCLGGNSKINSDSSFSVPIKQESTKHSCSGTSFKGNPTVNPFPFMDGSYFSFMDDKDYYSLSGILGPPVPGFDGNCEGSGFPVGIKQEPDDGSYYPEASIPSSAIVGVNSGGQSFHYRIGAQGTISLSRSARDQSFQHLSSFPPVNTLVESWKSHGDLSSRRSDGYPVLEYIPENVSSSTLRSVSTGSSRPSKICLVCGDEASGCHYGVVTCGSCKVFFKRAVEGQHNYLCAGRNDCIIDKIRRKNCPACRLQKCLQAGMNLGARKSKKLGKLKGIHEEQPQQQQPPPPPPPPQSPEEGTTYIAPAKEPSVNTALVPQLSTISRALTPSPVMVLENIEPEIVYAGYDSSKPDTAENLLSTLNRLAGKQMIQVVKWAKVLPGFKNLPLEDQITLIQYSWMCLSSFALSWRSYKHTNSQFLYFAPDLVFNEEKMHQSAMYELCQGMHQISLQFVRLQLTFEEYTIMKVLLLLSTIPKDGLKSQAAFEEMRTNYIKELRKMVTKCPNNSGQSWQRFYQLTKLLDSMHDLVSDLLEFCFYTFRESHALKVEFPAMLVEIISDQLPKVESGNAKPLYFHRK
Experimental for androgen receptor: Androgen Receptor Binding Test:
The test was carried out as in 1, with the following modifications: cytosol from androgen receptor-expressing insect cells (Hi5) was used, and the reference substance was ^3H-testosterone.

As for `C[C@]12CCC3C4CCC(=O)C=C4[C@H](CO)CC3C1C1CC1[C@@]21CCC(=O)O1` (stereo partly drawn) [Example 7, 17β-Hydroxy-6β-hydroxymethyl-15α,16α-methylene-19-nor-17α-pregna-4-en-3-one-21-carboxylic acid γ-lactone], on androgen receptor, the “Receptor binding Androgen receptor Competition factor” value came to 1000.0 and the IC50 is 10000 nM. The “Receptor binding Mineralocorticoid receptor Competition factor” value in test [1] turned out to be 2.1. For the same compound, on progesterone receptor [2], the “Receptor binding Progesterone receptor Competition factor” value amounted to 49.90, the “CF PR/CF MR” value turned out to be 23.76 and the IC50 stood at 1100 nM. Besides, on progesterone receptor [3] (setting [4]), the EC50 was found to be 910 nM. For the same compound, the Emax on progesterone receptor [3] (setting [5]) amounted to 22.8%.

Regarding `CCC1CC2=CC(=O)CCC2C2CC[C@@]3(C)C(C4CC4[C@@]34CCC(=O)O4)C12` (stereo partly drawn) [Example 4, 17β-Hydroxy-7α-ethyl-15α,16α-methylene-19-nor-17α-pregna-4-en-3-one-21-carboxylic acid γ-lactone], on androgen receptor, the “Receptor binding Androgen receptor Competition factor” value is listed as 5.6 and the half-inhibitory concentration (IC50) was found to be 74 nM. Further, the “Receptor binding Mineralocorticoid receptor Competition factor” value in test [1] was 1.2. In addition, on progesterone receptor [2], the “Receptor binding Progesterone receptor Competition factor” value turned out to be 1.74, the “CF PR/CF MR” value was 1.45 and the IC50 amounted to 33 nM. At progesterone receptor [3], the response was half-maximal at 0.7 nM (EC50). For the same compound, at progesterone receptor [3] (CHO-K1, 16 h), the Emax was 56.7%.

Take `C[C@]12CCC3C4CCC(=O)C=C4CCC3C1C1CC1[C@@]21CCC(=O)O1` (stereo partly drawn) [Example 1, 17β-Hydroxy-15α,16α-methylene-19-nor-17α-pregna-4-en-3-one-21-carboxylic acid γ-lactone]: at androgen receptor, the “Receptor binding Androgen receptor Competition factor” value was found to be 110.0 and the IC50 was found to be 6 nM. In test [1], the “Receptor binding Mineralocorticoid receptor Competition factor” value was determined as 1.8. Besides, the Emax at progesterone receptor [3] (CHO-K1, 16 h) turned out to be 55.9%.

As for `C[C@]12CCC(=O)C=C1[C@@H]1C[C@@H]1[C@H]1[C@@H]3[C@@H]4C[C@@H]4[C@@]4(CCC(=O)O4)[C@@]3(C)CC[C@@H]12` [A, 6β,7β-15β,16β-dimethylene-3-oxo-17-pregn-4-ene-21,17β-carbolactone, reference compound], the “Receptor binding Mineralocorticoid receptor Competition factor” value in test [1] came to 0.5. Besides, the “Receptor binding Progesterone receptor Competition factor” value at progesterone receptor [2] came to 2.7. In addition, on progesterone receptor [3] (setting [5]), the Emax amounted to 72.2%.

With `C=CC1CC2=CC(=O)CCC2C2CC[C@@]3(C)C(C4CC4[C@@]34CCC(=O)O4)C12` (stereo partly drawn) [Example 5, 17β-Hydroxy-7α-vinyl-15α,16α-methylene-19-nor-17α-pregna-4-en-3-one-21-carboxylic acid γ-lactone], at androgen receptor, the “Receptor binding Androgen receptor Competition factor” value was determined as 3.0 and the IC50 worked out at 55 nM. For the same compound, the “Receptor binding Mineralocorticoid receptor Competition factor” value in test [1] is 1.4. Moreover, at progesterone receptor [2], the “Receptor binding Progesterone receptor Competition factor” value was found to be 1.16, the “CF PR/CF MR” value came to 0.83 and the IC50 was found to be 15 nM. On progesterone receptor [3], this compound showed an EC50 of 3.4 nM. At progesterone receptor [3] (CHO-K1, 16 h), the Emax turned out to be 66.1%.

Turning to `C[C@]12CCC3C4CCC(=O)C=C4CC(C4CC4)C3C1C1CC1[C@@]21CCC(=O)O1` (stereo partly drawn) [Example 6, 17β-Hydroxy-7α-cyclopropyl-15α,16α-methylene-19-nor-17α-pregna-4-en-3-one-21-carboxylic acid γ-lactone], on androgen receptor, the “Receptor binding Androgen receptor Competition factor” value is 6.3 and the IC50 came out at 78 nM. Moreover, the “Receptor binding Mineralocorticoid receptor Competition factor” value in test [1] is given as 1.6. On progesterone receptor [2], the “Receptor binding Progesterone receptor Competition factor” value was determined as 2.65, the “CF PR/CF MR” value worked out at 1.66 and the IC50 turned out to be 51 nM. Further, the midpoint of the response on progesterone receptor [3], the EC50, lay at 1 nM. Besides, the Emax at progesterone receptor [3] (CHO-K1, 16 h) came to 48.6%.

Turning to `CC1CC2=CC(=O)CCC2C2CC[C@@]3(C)C(C4CC4[C@@]34CCC(=O)O4)C12` (stereo partly drawn) [Example 3, 17β-Hydroxy-7α-methyl-15α,16α-methylene-19-nor-17α-pregna-4-en-3-one-21-carboxylicacid γ-lactone], on androgen receptor, the “Receptor binding Androgen receptor Competition factor” value came out at 2.8 and the IC50 came to 61 nM. In test [1], the “Receptor binding Mineralocorticoid receptor Competition factor” value is on record as 1.3. Moreover, the Emax at progesterone receptor [3] (CHO-K1, 16 h) came to 87%.

Regarding `C[C@]12CCC3C4CCC(=O)C=C4[C@@H]4C[C@@H]4C3C1C1CC1[C@@]21CCC(=O)O1` (stereo in doubt) [compound 9], at progesterone receptor [3] (setting [4]), the EC50 stood at 1 nM. On progesterone receptor [3] (CHO-K1, 16 h), the Emax stood at 77.4%.

As for `C[C@]12CCC3C4CCC(=O)C=C4C4CC4C3C1C1CC1[C@@]21CCC(=O)O1` (stereo partly drawn) [Example 9 (B), 17β-hydroxy-6α,7α-15α,16α-bismethylene-19-nor-17α-pregna-4-en-3-one-21-carboxylic acid γ-lactone], the Emax at progesterone receptor [3] (setting [5]) was 107%.

With `C[C@]12CCC3C4CCC(=O)C=C4C4(CC4)CC3C1C1CC1[C@@]21CCC(=O)O1` (stereo partly drawn) [Example 8, 6,6-(1,2-Ethanediyl)-17β-hydroxy-15α,16α-methylene-19-nor-17α-pregna-4-en-3-one-21-carboxylic acid γ-lactone], on androgen receptor, the “Receptor binding Androgen receptor Competition factor” value is recorded as 1.4 and the IC50 stood at 26 nM. Also, in test [1], the “Receptor binding Mineralocorticoid receptor Competition factor” value is listed as 0.9. Further, on progesterone receptor [2], the “Receptor binding Progesterone receptor Competition factor” value is 0.71, the “CF PR/CF MR” value came to 0.79 and the IC50 amounted to 8.9 nM. The compound also came in with an EC50 on progesterone receptor [3] of 0.1 nM. For the same compound, the Emax on progesterone receptor [3] (CHO-K1, 16 h) worked out at 69.7%.
